Among the data in patent publication US9181273B2, “Morpholine-spirocyclic piperidine amides as modulators of ion channels” (Vertex Pharmaceuticals Incorporated, priority 2011, dated 2015) are IC50 values, retold here.

Molecules are shown by their SMILES.

One may read the IC50 as the midpoint of a concentration-inhibition curve.

Sequence of human NaV subtype, like NaV 1.7 (Q15858 whole entry): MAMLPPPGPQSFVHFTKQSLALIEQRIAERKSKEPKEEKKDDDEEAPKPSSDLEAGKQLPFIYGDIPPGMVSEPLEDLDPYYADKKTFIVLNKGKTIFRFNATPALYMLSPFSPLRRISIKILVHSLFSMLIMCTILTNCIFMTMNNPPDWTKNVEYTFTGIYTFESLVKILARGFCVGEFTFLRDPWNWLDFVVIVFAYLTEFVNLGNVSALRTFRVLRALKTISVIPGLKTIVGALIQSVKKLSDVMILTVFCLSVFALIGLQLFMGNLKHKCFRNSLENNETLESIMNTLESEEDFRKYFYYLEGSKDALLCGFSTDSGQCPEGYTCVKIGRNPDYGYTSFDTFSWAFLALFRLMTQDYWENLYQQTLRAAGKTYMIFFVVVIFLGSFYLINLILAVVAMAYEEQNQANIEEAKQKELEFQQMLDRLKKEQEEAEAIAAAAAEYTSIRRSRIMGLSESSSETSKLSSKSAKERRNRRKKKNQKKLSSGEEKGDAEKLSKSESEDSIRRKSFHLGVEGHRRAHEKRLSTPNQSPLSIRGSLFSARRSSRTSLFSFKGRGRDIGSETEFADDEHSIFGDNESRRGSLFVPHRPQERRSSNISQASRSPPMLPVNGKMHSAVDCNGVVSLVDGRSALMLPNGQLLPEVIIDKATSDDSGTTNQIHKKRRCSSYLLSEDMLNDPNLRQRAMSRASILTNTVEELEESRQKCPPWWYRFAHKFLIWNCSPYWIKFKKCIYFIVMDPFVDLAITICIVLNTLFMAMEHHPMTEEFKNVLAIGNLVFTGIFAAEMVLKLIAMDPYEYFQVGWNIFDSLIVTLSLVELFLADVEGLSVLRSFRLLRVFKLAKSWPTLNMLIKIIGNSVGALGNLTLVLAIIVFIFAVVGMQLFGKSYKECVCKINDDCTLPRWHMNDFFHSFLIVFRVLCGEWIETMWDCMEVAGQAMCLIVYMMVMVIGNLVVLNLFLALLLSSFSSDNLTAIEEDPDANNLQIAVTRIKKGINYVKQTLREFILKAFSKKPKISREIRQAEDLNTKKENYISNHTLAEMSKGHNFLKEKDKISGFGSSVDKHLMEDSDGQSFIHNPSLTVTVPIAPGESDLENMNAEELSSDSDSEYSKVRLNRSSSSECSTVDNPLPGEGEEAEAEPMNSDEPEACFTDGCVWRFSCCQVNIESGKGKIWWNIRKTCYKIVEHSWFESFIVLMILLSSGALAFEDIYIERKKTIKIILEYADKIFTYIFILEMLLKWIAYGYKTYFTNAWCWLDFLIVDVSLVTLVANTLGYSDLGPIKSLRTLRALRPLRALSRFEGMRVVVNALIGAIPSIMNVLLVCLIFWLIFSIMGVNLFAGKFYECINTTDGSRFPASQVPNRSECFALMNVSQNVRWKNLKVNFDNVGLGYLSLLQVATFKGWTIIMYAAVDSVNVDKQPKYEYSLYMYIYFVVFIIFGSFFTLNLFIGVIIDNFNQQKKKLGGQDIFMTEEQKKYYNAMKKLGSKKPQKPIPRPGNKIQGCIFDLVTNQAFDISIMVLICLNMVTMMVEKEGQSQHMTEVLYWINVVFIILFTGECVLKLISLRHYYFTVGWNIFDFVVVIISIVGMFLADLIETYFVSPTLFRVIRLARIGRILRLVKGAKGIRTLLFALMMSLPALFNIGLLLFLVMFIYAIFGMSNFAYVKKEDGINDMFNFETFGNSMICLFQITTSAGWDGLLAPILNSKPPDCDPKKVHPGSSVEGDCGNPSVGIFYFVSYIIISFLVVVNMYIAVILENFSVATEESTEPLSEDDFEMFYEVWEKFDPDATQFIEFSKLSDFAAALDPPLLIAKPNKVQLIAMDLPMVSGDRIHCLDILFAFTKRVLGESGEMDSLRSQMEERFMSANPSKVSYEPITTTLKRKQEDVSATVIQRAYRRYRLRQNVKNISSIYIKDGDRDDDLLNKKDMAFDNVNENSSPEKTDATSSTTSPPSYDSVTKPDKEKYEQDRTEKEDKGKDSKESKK

The experiment concerns the target human NaV subtype, like NaV 1.7 (Homo sapiens, UniProt Q15858). Put plainly: E-VIPR optical membrane potential assay with electrical stimulation. The format is cell-based. The settings on record: active against one or more sodium channels; assay and NaV subtype not specified for Table 3; read-out: IC50 Binned Activity Data. An excerpt:
Sodium channels are voltage-dependent proteins that can be activated by inducing membrane voltage changes by applying electric fields. […] The instrument comprises a microtiter plate handler, an optical system for exciting the coumarin dye while simultaneously recording the coumarin and oxonol emissions, a waveform generator, a current- or voltage-controlled amplifier, and a device for inserting electrodes in well. Under integrated computer control, this instrument passes user-programmed electrical stimulus protocols to cells within the wells of the microtiter plate.
24 hours before the assay on E-VIPR, HEK cells expressing human NaV subtype, like NaV 1.7, are seeded in 384-well poly-lysine coated plates at 15,000-20,000 cells per well. Other subtypes are performed in an analogous mode in a cell line expressing the NaV of interest. […] Cells are grown in vented cap flasks, in 90% humidity and 10% CO2, to 100% confluence. They are usually split by trypsinization 1:10 or 1:20, depending on scheduling needs, and grown for 2-3 days before the next split.
To make the solution Add volume of 10% Pluronic F127 stock equal to volumes of CC2-DMPE+DiSBAC6(3). The order of preparation is first mix Pluronic and CC2-DMPE, then add DiSBAC6(3) while vortexing, then add Bath1+β-Cyclodextrin.
1) Pre-spot compounds (in neat DMSO) into compound plates. […] Final compound plate volume will be 80 μL (80-fold intermediate dilution from 1 μL DMSO spot; 160-fold final dilution after transfer to cell plate).
2) Prepare Hexyl Dye Solution.
3) Prepare cell plates. On the day of the assay, medium is aspirated and cells are washed three times with 100 μL of Bath1 Solution, maintaining 25 μL residual volume in each well.
4) Dispense 25 μL per well of Hexyl Dye Solution into cell plates. Incubate for 20-35 minutes at room temp or ambient conditions.
5) Dispense 80 μL per well of Bath1 into compound plates. Acid Yellow-17 (1 mM) is added and Potassium Chloride can be altered from 4.5 to 20 mM depending on the NaV subtype and assay sensitivity.
6) Wash cell plates three times with 100 μL per well of Bath1, leaving 25 μL of residual volume. Then transfer 25 uL per well from Compound Plates to Cell Plates. Incubate for 20-35 minutes at room temp/ambient condition
7) Read Plate on E-VIPR. Use the current-controlled amplifier to deliver stimulation wave pulses for typically 9 seconds and a scan rate of 400 Hz. A pre-stimulus recording is performed for 0.5 seconds to obtain the un-stimulated intensities baseline. The stimulatory waveform is applied for 9 seconds followed by 0.5 seconds of post-stimulation recording to examine the relaxation to the resting state. The stimulatory waveform of the electrical stimulation is specific for each cell type and can vary the magnitude, duration and frequency of the applied current to provide an optimal assay signal.
Data are analyzed and reported as normalized ratios of background-subtracted emission intensities measured in the 460 nm and 580 nm channels. Background intensities are then subtracted from each assay channel. Background intensities are obtained by measuring the emission intensities during the same time periods from identically treated assay wells in which there are no cells. The response as a function of time is then reported as the ratios obtained using the following formula: […]
The data is further reduced by calculating the initial (Ri) and final (Rf) ratios. These are the average ratio values during part or all of the pre-stimulation period, and during sample points during the stimulation period. The response to the stimulus R=Rf/Ri is then calculated and reported as a function of time.
Control responses are obtained by performing assays in the presence of a compound with the desired properties (positive control), such as tetracaine, and in the absence of pharmacological agents (negative control). Responses to the negative (N) and positive (P) controls are calculated as above. The compound antagonist activity A is defined as: […]
As for `COCC1CN(CC(=O)C(C)(C)C)CC2(CCN(C(=O)c3ccc(OC(C)C)c(C)c3)CC2)O1` (stereo not shown) [Compound 193], the half-maximal inhibitory concentration (IC50) is less than 2000 nM. For the compound `CC#CCN1CC(CC)OC2(CCN(C(=O)c3ccc(OC(C)C)c(C)n3)CC2)C1` (stereo not shown) [Compound 277], the half-inhibitory concentration (IC50) lay in the range of 2000 to 5000 nM. Under `CCc1cnc(C2CN(CC(F)F)CC3(CCN(C(=O)c4ccc(OC(C)C)c(C)c4)CC3)O2)o1` (stereo not shown) [Compound 214] stands 2000 to 5000 nM; under `CC(C)Oc1ccc(C(=O)N2CCC3(CC2)CN(CC(F)F)CC(c2ccccc2)O3)cc1Cl` (stereo not shown) [Compound 86], less than 2000 nM; under `Cc1cccnc1C1CN(CC(F)F)CC2(CCN(C(=O)c3ccc(OC(C)C)c(F)c3)CC2)O1` (stereo not shown) [Compound 261], less than 2000 nM.

With `CC(C)(O)c1ccc(C(=O)N2CCC3(CC2)CN(CC(F)F)CC(c2ccccn2)O3)cc1F` (stereo not shown) [Compound 57], the IC50 fell in the range of 2000 to 5000 nM. For `COCC1CN(c2ccc(C)cn2)CC2(CCN(C(=O)c3ccc(OC(C)C)c(C)c3)CC2)O1` (stereo not shown) [Compound 75] the value was less than 2000 nM; for `Cc1noc(C2CN(Cc3ccccc3)CC3(CCN(C(=O)c4ccc(OC(C)C)c(C)c4)CC3)O2)n1` (stereo not shown) [Compound 148], 2000 to 5000 nM. Under `CC(C)(O)c1ccc(C(=O)N2CCC3(CC2)CN(CC(F)(F)F)CC(c2ccccc2)O3)cc1` (stereo not shown) [Compound 105] stands less than 2000 nM. In the case of `COCC1CN(c2ncccn2)CC2(CCN(C(=O)c3ccc(OCCC(C)C)c(OC)c3)CC2)O1` (stereo not shown) [Compound 276], the half-inhibitory concentration (IC50) is less than 2000 nM. Turning to `CCC1CN(c2ccccn2)CC2(CCN(C(=O)c3ccc(C(C)(C)O)c(F)c3)CC2)O1` (stereo not shown) [Compound 41], the IC50 is less than 2000 nM. `COCC1CN(C2CCSCC2)CC2(CCN(C(=O)c3ccc(OC(C)C)c(C)c3)CC2)O1` (stereo not shown) [Compound 131]: the IC50 is less than 2000 nM. For `CC(C)Oc1ccc(C(=O)N2CCC3(CC2)CN(CC(F)(F)F)CC(c2ccccc2)O3)cc1Cl` (stereo not shown) [Compound 213] the value was less than 2000 nM; for `COCC1CN(c2ncccn2)CC2(CCN(C(=O)c3ccc(OCC(C)(C)O)c(C)c3)CC2)O1` (stereo not shown) [Compound 216], 2000 to 5000 nM.

As for `CCN1CC(c2ccccc2)OC2(CCN(C(=O)c3ccc(S(=O)(=O)NC4CC4)cc3)CC2)C1` (stereo not shown) [Compound 167], the concentration for half-maximal inhibition (IC50) is greater than 5000 nM. Under `Cc1cc(C(=O)N2CCC3(CC2)CN(CC(F)F)CC(c2ccccn2)O3)ccc1S(=O)(=O)C(C)C` (stereo not shown) [Compound 65] stands greater than 5000 nM; under `CC(C)Oc1ccc(C(=O)N2CCC3(CC2)CN(CC(F)(F)F)CC(c2cc[nH]n2)O3)cc1Cl` (stereo not shown) [Compound 110], less than 2000 nM. Under `COCC1CN(c2ncccn2)CC2(CCN(C(=O)c3ccc(C(C)(C)O)cc3)CC2)O1` (stereo not shown) [Compound 161] stands greater than 5000 nM.

As to `CCOCCN1CC(COC)OC2(CCN(C(=O)c3ccc(OC(C)C)c(C)c3)CC2)C1` (stereo not shown) [Compound 55], the IC50 is less than 2000 nM. For the compound `COCC1CN(c2ncccn2)CC2(CCN(C(=O)c3ccc(C4(O)CCCCC4)cc3)CC2)O1` (stereo not shown) [Compound 237], the IC50 was less than 2000 nM. Under `CCN1CC(COC)OC2(CCN(C(=O)c3ccc(OC(C)C)c(C)c3)CC2)C1` (stereo not shown) [Compound 254] stands 2000 to 5000 nM. Under `CC(C)Oc1ccc(C(=O)N2CCC3(CC2)CN(CC(F)F)CC(c2ccnn2C)O3)cc1F` (stereo not shown) [Compound 84] stands greater than 5000 nM; under `CC(C)Oc1ccc(C(=O)N2CCC3(CC2)CN(CC(F)F)CC(c2ccccc2Cl)O3)cc1F` (stereo not shown) [Compound 190], less than 2000 nM.

Consider `CCC1CN(c2ccccn2)CC2(CCN(C(=O)c3ccc(C4(O)CCCC4)cc3)CC2)O1` (stereo not shown) [Compound 288], for which the concentration for half-maximal inhibition (IC50) is less than 2000 nM. `Cc1cc(C(=O)N2CCC3(CC2)CN(CC(F)(F)F)CC(c2ccccc2)O3)ccc1S(=O)(=O)C(C)C` (stereo not shown) [Compound 200]: the 50% inhibitory concentration (IC50) was less than 2000 nM. Under `Cc1cc(C(=O)N2CCC3(CC2)CN(CC(F)(F)F)CC(c2ccccc2)O3)ccc1S(C)(=O)=O` (stereo not shown) [Compound 189] stands less than 2000 nM; under `COCC1CN(Cc2cc(C)on2)CC2(CCN(C(=O)c3ccc(OC(C)C)c(C)c3)CC2)O1` (stereo not shown) [Compound 132], 2000 to 5000 nM. Regarding `Cc1cc(C(=O)N2CCC3(CC2)CN(CC(F)(F)F)CC(c2ccccc2)O3)ccc1OC1COC1` (stereo not shown) [Compound 245], the IC50 was less than 2000 nM. For `Cc1cc(C(=O)N2CCC3(CC2)CN(CC(F)(F)F)CC(c2ccccc2)O3)ccc1C1COC1` (stereo not shown) [Compound 251] the value was less than 2000 nM; for `COCC1CN(c2cccc(C(F)(F)F)c2)CC2(CCN(C(=O)c3ccc(C4(O)CCC4)cc3)CC2)O1` (stereo not shown) [Compound 223], less than 2000 nM. For `COCC1CN(c2ncccn2)CC2(CCN(C(=O)c3ccc(OC(C)C)cc3)CC2)O1` (stereo not shown) [Compound 136] the value was 2000 to 5000 nM.

Regarding `COCC1CN(C2CCOCC2)CC2(CCN(C(=O)c3ccc(OC(C)C)c(C)c3)CC2)O1` (stereo not shown) [Compound 270], the IC50 lay within 2000 to 5000 nM. As to `CC(C)Oc1ccc(C(=O)N2CCC3(CC2)CN(CC(F)F)CC(c2ccccn2)O3)cc1Cl` (stereo not shown) [Compound 222], the IC50 was less than 2000 nM.

Turning to `CCN1CC(c2ncc(C)s2)OC2(CCN(C(=O)c3ccc(OC(C)C)c(C)c3)CC2)C1` (stereo not shown) [Compound 250], the half-inhibitory concentration (IC50) is less than 2000 nM. Under `CCC1CN(c2ncccn2)CC2(CCN(C(=O)c3ccc(C4(O)CCCC4)c(C)c3)CC2)O1` (stereo not shown) [Compound 50] stands less than 2000 nM; under `CCS(=O)(=O)c1ccc(C(=O)N2CCC3(CC2)CN(CC(F)(F)F)CC(c2ccccc2)O3)cc1C` (stereo not shown) [Compound 62], less than 2000 nM. Regarding `CC#CCN1CC(COC)OC2(CCN(C(=O)c3ccc(OC(C)C)c(C)c3)CC2)C1` (stereo not shown) [Compound 218], the IC50 is less than 2000 nM. For `CCN1CC2(CCN(C(=O)c3ccc(OC(C)C)c(OC)c3)CC2)OCC1c1ccccc1` (stereo not shown) [Compound 43] the value was 2000 to 5000 nM. For `Cc1noc(C2CN(CC(F)(F)F)CC3(CCN(C(=O)c4ccc(OC(C)C)c(C)c4)CC3)O2)n1` (stereo not shown) [Compound 149] the value was 2000 to 5000 nM; for `COCC1CN(c2nccs2)CC2(CCN(C(=O)c3ccc(OC(C)C)c(C)c3)CC2)O1` (stereo not shown) [Compound 180], less than 2000 nM; for `Cc1nc(C(=O)N2CCC3(CC2)CN(CC(F)(F)F)CC(c2ccccc2)O3)ccc1C#N` (stereo not shown) [Compound 106], greater than 5000 nM.

Take `CC(C)Oc1ccc(C(=O)N2CCC3(CC2)CN(CC(F)F)CC(c2ccccn2)O3)cc1F` (stereo not shown) [Compound 221]: the 50% inhibitory concentration (IC50) was less than 2000 nM.

With `COCC1CN(c2cccnc2)CC2(CCN(C(=O)c3ccc(OC(C)C)c(C)c3)CC2)O1` (stereo not shown) [Compound 291], the concentration for half-maximal inhibition (IC50) was less than 2000 nM. In the case of `CCC(=O)N1CC(c2ccccc2)OC2(CCN(C(=O)c3ccc(OC(C)C)c(C)c3)CC2)C1` (stereo not shown) [Compound 266], the IC50 lay within 2000 to 5000 nM. Under `Cc1cc(C(=O)N2CCC3(CC2)CN(CC(F)F)CC(c2ccc(F)cc2)O3)ccc1OC(C)C` (stereo not shown) [Compound 27] stands less than 2000 nM; under `Cc1cc(C(=O)N2CCC3(CC2)CN(CC(F)F)CC(c2ccnn2C)O3)ccc1OC(C)C` (stereo not shown) [Compound 11], less than 2000 nM. Under `Cc1nc(C(=O)N2CCC3(CC2)CN(CC(F)F)CC(c2ccccc2)O3)ccc1OC(C)C` (stereo not shown) [Compound 246] stands less than 2000 nM; under `COCC1CN(c2ncccn2)CC2(CCN(C(=O)c3ccc(C4(O)CCC4)c(C)c3)CC2)O1` (stereo not shown) [Compound 93], less than 2000 nM.

For `COCCOc1ccc(C(=O)N2CCC3(CC2)CN(CC(F)(F)F)CC(c2ccccc2)O3)cc1OC` (stereo not shown) [Compound 143], the IC50 is less than 2000 nM.

As to `COCC1CN(c2ncccc2OC)CC2(CCN(C(=O)c3ccc(OC(C)C)c(C)c3)CC2)O1` (stereo not shown) [Compound 79], the 50% inhibitory concentration (IC50) is less than 2000 nM.

`CCC1CN(Cc2ccccc2)CC2(CCN(C(=O)c3ccc(OC(C)C)c(C)c3)CC2)O1` (stereo not shown) [Compound 142]: the IC50 was greater than 5000 nM.

Take `Cc1cc(C(=O)N2CCC3(CC2)CN(CC(F)(F)F)CC(CCO)O3)ccc1OC(C)C` (stereo not shown) [Compound 146]: the IC50 fell in the range of 2000 to 5000 nM.
